Laboratory results taken from patent US8293763B2, “8-anilinoimidazopyridines and their use as anti-cancer and/or anti-inflammatory agents” (Genentech, Inc., priority 2007, dated 2012).
pEC50: −log10 of the molar value.

Experiments:
[1] = test system: HCT116 human colorectal carcinoma; test: Cell Proliferation Assay (CellTiter-Glo), HCT116; type: cell-based; settings: HCT-116, HCT116 cell line, 72 h exposure
Description: Compounds are tested in a cell proliferation assay using the following cell lines:
(§1) HCT116 human colorectal carcinoma (ATCC)
(§2) Both cell lines are maintained in DMEM/F12 (1:1) media (Gibco) supplemented with 10% FCS at 37° C. in a 5% CO2 humidified incubator.
Cells are seeded in 96-well plates at 2,000 cells/well and after 24 hours they are exposed to different concentrations of compounds in 0.83% DMSO. Cells are grown for a further 72 h, and an equal volume of CellTiter-Glo reagent (Promega) is added to each well. This lyses the cells and generates a luminescent signal proportional to the amount of ATP released (and therefore proportional to the number of cells in the well) that can be detected using a multi-well luminometer.
The EC50 is defined as the concentration at which a given compound achieves 50% inhibition of control. IC50 values are calculated using the XLfit software package (version 2.0.5).

[2] = test system: phospho-ERK; test: Phospho-ERK Cell-Based Assay (ELISA), HCT116; settings: Homo sapiens, HCT-116; HCT116 cell line, 2 h or 24 h exposure
Description: Phospho-ERK Cell-Based Assay
Compounds are tested in a cell-based phospho-ERK ELISA using the following cell lines:
as §1, §2
Cells are seeded in 96-well plates at 2,000 cells/well and after 24 h they are exposed to different concentrations of compounds in 0.83% DMSO. Cells are grown for a further 2 h or 24 h, fixed with formaldehyde (2% final) and permeabilised with methanol. Following blocking with TBST-3% BSA, fixed cells are incubated with primary antibody (anti-phospho ERK from rabbit) over-night at 4° C. Cells are incubated with Propidium Iodide (DNA fluorescent dye) and detection of cellular p-ERK is performed using an anti-rabbit secondary antibody conjugated to the fluorescent Alexa Fluor 488 dye (Molecular probes). The fluorescence is analysed using the Acumen Explorer (TTP Labtech), a laser-scanning microplate cytometer, and the Alexa Fluor 488 signal is normalised to the PI signal (proportional to cell number).
The EC50 is defined as the concentration at which a given compound achieves a signal half way between the baseline and the maximum response. EC50 values are calculated using the XLfit software package (version 2.0.5).

C[C@H](O)CONC(=O)c1ccn2cncc2c1Nc1ccc(Br)cc1F [Example 12, 8-(4-Bromo-2-fluoro-phenylamino)-imidazo[1,5-a]pyridine-7-carboxylic acid ((S)-2-hydroxy-propoxy)-amide]
pEC50 [1]: > 7.00 | pEC50 [2]: > 6.70
